“Also recorded” adds a separate entry of the source.
Tests used:
MDR1 = test: Gene re-expression by REAL-time RT-PCR in peripheral blood mononuclear cells (MDR1); type: in vivo, human; details: hr 4 on days 1 and 8; normalized to ABL; p=0.04
Method: (§1) FK228 (Fujisawa, Osaka, Japan) was administered intravenously over four hours at a dose of 13.3 mg/m^2/d on days 1, 8, and 15 of a 28-day cycle. Peripheral blood mononuclear cells were obtained prior to (hour 0) and 4 hours (hour 4) and 24 hours (hour 24) after dosing on days 1 and 8 and used to evaluate histone acetylation by flow cytometry and gene re-expression by REAL-time RT-PCR. Target genes of interest include MDR1, a target of HDI-mediated upregulation, and p15^INK4B (P15), a target of DNA hypermethylation in AML.
(§2) MDR1 and p15 copy numbers were expressed as a normalized quotient of MDR1 and p15, respectively, to the housekeeping gene ABL.

bone marrow blasts = test: Phase II study of depsipeptide in relapsed or refractory AML: anti-leukemic response; type: in vivo, human
From the text: (§3) Eighteen patients (median age=60 years, age range=25-77 years) with relapsed or refractory AML were enrolled in a multicenter Phase II study of depsipeptide for the treatment of AML. Patients were divided into two groups upon entry into the study: Group A (n=14), which included patients without specific chromosomal abnormalities correlated with recruitment of histone deacetylases; and Group B (n=4), which included patients with chromosomal aberrations associated with recruitment of histone deacetylases, such as t(8;21), inv 16, or t(15; 17).
as §1

H3 acetylation = test: Histone acetylation by flow cytometry in peripheral blood mononuclear cells; type: in vivo, human
Method: as §1

p15INK4B (P15) = test: Gene re-expression by REAL-time RT-PCR in peripheral blood mononuclear cells (p15); type: in vivo, human; details: normalized to ABL; p-0.01
Method: as §1, §2

[1] = Tolerability in Phase II AML study; type: in vivo, human; details: AML patients, 13.3 mg/m2/d iv days 1, 8, 15 of 28-day cycle
From the text: as §3, §1

HDAC [2] = details: cited from earlier work
HDAC [3] = details: formed from FK228 by dithiothreitol reduction in vitro; cited from earlier work

Structure (SMILES) | overall mean increase in MDR1 expression (MDR1) [%] | response of patient having a t(4;21) translocation (bone marrow blasts; 13.3 mg/m2/d iv days 1, 8, 15 of 28-day cycle) | objective evidence of response (complete or partial remission) or other anti-leukemic activity (bone marrow blasts; Group A (n=14), patients without chromosomal abnormalities correlated with HDAC recruitment, 13.3 mg/m2/d iv over 4 h, days 1, 8, 15 of 28-day cycle) | patients exhibiting marked reduction of bone marrow blasts (bone marrow blasts; Group B (n=4), chromosomal aberrations associated with HDAC recruitment, after one cycle, 13.3 mg/m2/d iv) [%] | time to increase in bone marrow blasts following cessation of therapy (bone marrow blasts; both responding Group B patients, antileukemic effect short-lived) [days] | hematopoiesis in responding patients (bone marrow blasts; responders of Group B, following the second cycle of treatment, 13.3 mg/m2/d iv) | bone marrow blast percentage in responding patients (bone marrow blasts; responders with AML1 translocations (t(8;21), t(4;21)), normocellular marrow after one cycle, 13.3 mg/m2/d iv) [%] | patients exhibiting increase H3 acetylation (H3 acetylation; 4 of 14 patients) [%] | patients exhibiting an increase in H3 acetylation (H3 acetylation; Group B cohort (3 of 4), at 4 and/or 24 hours after dosing) [%] | mean increase in p15 expression (p15INK4B (P15)) [%] | most common adverse effects [1] | tolerability [1] | HDAC inhibition in vivo (HDAC [2]) | HDAC inhibition (HDAC [3])
C/C=C1\NC(=O)[C@H]2CSSCC/C=C/[C@H](CC(=O)N[C@H](C(C)C)C(=O)N2)OC(=O)[C@H](C(C)C)NC1=O [FK228] | 41 | responded to the treatment | No objective evidence of response | 50 | ≤ 30 | return to substantially normal hematopoiesis; also recorded: recovery of near-normal hematopoiesis | < 5 | 28 | 75 | 91 | grade ½ nausea, vomiting, and fatigue | well tolerated | strongly inhibits HDAC | 
C/C=C1\NC(=O)[C@@H](CS)NC(=O)[C@@H](C(C)C)NC(=O)C[C@@H](/C=C/CCS)OC(=O)[C@H](C(C)C)NC1=O [FR135313] |  |  |  |  |  |  |  |  |  |  |  |  |  | capable of inhibiting HDAC

— patent US20060106049A1, “Histone deacetylase inhibitors and methods of use” (The University of chicago, priority 2004, published 2006)
